Reference: patent US12097202B2 (Kadmon Corporation, LLC, priority 2022, dated 2024)

Test system: patients with chronic GVHD
Test: Example 2: phase II randomized study of belumosudil (KD025-213) in cGVHD, efficacy and safety;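 also: allogeneic HCT recipients aged ≥12 years with persistent cGVHD after two to five earlier systemic treatment lines, responses judged by site investigators, 12-month analysis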
Settings: for Cough / Diarrhea / Dyspnea / Fatigue / Headache / Muscle spasms / Nausea / Peripheral edema / Vomiting: All grades; for Hyperglycemia / Hypertension / Pneumonia: Grade ≥3; for ALT increased / AST increased / Bilirubin conjugated increased / Blood alkaline phosphatase increased / GGT increased / Hypoalbuminemia / LFT increased / Transaminases increased: Liver-related AE; for Clinically significant improvement from baseline (LSS), Overall: decrease ≥7 points in LSS score
[1] = 200 mg BID (n = 66), of subjects with organ involved
[2] = 200 mg QD (n = 66), of subjects with organ involved
[3] = Total (N = 132), of subjects with organ involved
[4] = Total, N=132, mITT, listed as Belumosudil

Source text: Concomitant treatment with supportive care therapies for chronic GVHD was permitted. […] Initiation of new systemic chronic GVHD therapy while on study was not permitted.
Eligible subjects were allogeneic hematopoietic cell transplant recipients aged ≥12 years with persistent cGVHD manifestations after receiving 2 to 5 prior systemic lines of therapy. Subjects were required to be receiving stable corticosteroid therapy for 2 weeks prior to screening and to have a Karnofsky or Lansky Performance Status Scale score≥60. Certain concurrent immunosuppressive medications were allowed because drug-drug interactions were not anticipated.
Randomization was stratified (1:1) by cGVHD severity and prior exposure to ibrutinib.
All responses were assessed by the study site investigators. Secondary end points included duration of response (DOR), time to response, changes in LSS summary score, failure-free survival (FFS), corticosteroid dose reductions, and overall survival (OS). DOR was measured from the time of initial PR or CR until documented progression from best response of cGVHD, time from initial response to start of additional systemic cGVHD therapy, or death. The 7-day LSS summary score was calculated based on the developer recommendations and was compared with the score from baseline; an improvement ≥7 points was considered clinically meaningful. […] Relative dose intensity (RDI) was used as a surrogate measure of drug tolerability and was defined as actual dose intensity/planned dose intensity, where dose intensity was defined as the cumulative dose over the duration of exposure (mg/d). Actual dose intensity captured the sum of actual doses received over the duration of exposure and incorporated dose reductions and/or interruptions.
The Hochberg procedure was used for multiplicity adjustment for the primary end point of best ORR. […] CI was calculated using the Clopper-Pearson interval (exact) method.

CC(C)NC(=O)COc1cccc(-c2nc(Nc3ccc4[nH]ncc4c3)c3ccccc3n2)c1 [belumosudil, 2-{3-[4-(1H-indazol-5-ylamino)-2-quinazolinyl]phenoxy}-N-(propan-2-yl) acetamide]
CR, Eyes [1]: (12) % | CR, Joints and fascia [1]: (20) % | CR, Lower GI [1]: (57) % | ORR, Esophagus [1]: (42) % | ORR, Lower GI [1]: (71) % | ORR, Lungs [1]: (22) % | ORR, Mouth [1]: (57) % | ORR, Skin [1]: (42) % | ORR, Upper GI [1]: (40) % | PR, Joints and fascia [1]: (47) % | PR, Lower GI [1]: (14) % | CR, Joints and fascia [2]: (20) % | CR, Liver [2]: (22) % | CR, Lungs [2]: (17) % | CR, Upper GI [2]: (54) % | ORR, Eyes [2]: (33) % | ORR, Joints and fascia [2]: (75) % | ORR, Liver [2]: (33) % | ORR, Lower GI [2]: (67) % | ORR, Lungs [2]: (29) % | ORR, Mouth [2]: (53) % | ORR, Skin [2]: (33) % | ORR, Upper GI [2]: (62) % | PR, Skin [2]: (18) % | Clinically significant improvement from baseline (LSS), Nonresponder (200 mg daily): (29) % | Any AE (200 mg daily (n = 66)): (99) % | Deaths (200 mg daily (n = 66)): (12) % | Drug-related AEs (200 mg daily (n = 66)): (74) % | Drug-related SAEs (200 mg daily (n = 66)): (8) % | Grade ≥3 AEs (200 mg daily (n = 66)): (56) % | Liver-related AEs (200 mg daily (n = 66)): (18) % | SAEs (200 mg daily (n = 66)): (41) % | CS discontinuation (200 mg daily, n=66, mITT): (20) % | FFS at 6 mo (200 mg daily, n=66, mITT): 73% | ORR (best, any time) (200 mg daily, n=66, mITT): (74) % | ORR for responses occurring within 6 mo of treatment (200 mg daily, n=66, mITT): (71) % | ORR for responses occurring within 12 mo of treatment (200 mg daily, n=66, mITT): (74) % | PR, within 6 mo of treatment (200 mg daily, n=66, mITT): (68) % | PR, within 12 mo of treatment (200 mg daily, n=66, mITT): (68) % | Clinically significant improvement from baseline (LSS), Nonresponder (200 mg twice daily): (33) % | Clinically significant improvement from baseline (LSS), Responder (200 mg twice daily): (71) % | Any AE (200 mg twice daily (n = 66)): (100) % | Deaths (200 mg twice daily (n = 66)): (9) % | Drug-related AEs (200 mg twice daily (n = 66)): (61) % | Drug-related SAEs (200 mg twice daily (n = 66)): (3) % | Grade ≥3 AEs (200 mg twice daily (n = 66)): (52) % | Liver-related AEs (200 mg twice daily (n = 66)): (29) % | SAEs (200 mg twice daily (n = 66)): (35) % | FFS at 6 mo (200 mg twice daily, n=66, mITT): 76% | ORR (best, any time) (200 mg twice daily, n=66, mITT): (77) % | PR, within 6 mo of treatment (200 mg twice daily, n=66, mITT): (71) % | PR, within 12 mo of treatment (200 mg twice daily, n=66, mITT): (73) % | Cough (200 mg daily (n = 66)): (30) % | Diarrhea (200 mg daily (n = 66)): (35) % | Dyspnea (200 mg daily (n = 66)): (32) % | Fatigue (200 mg daily (n = 66)): (46) % | Headache (200 mg daily (n = 66)): (20) % | Muscle spasms (200 mg daily (n = 66)): (20) % | Nausea (200 mg daily (n = 66)): (35) % | Peripheral edema (200 mg daily (n = 66)): (26) % | Vomiting (200 mg daily (n = 66)): (27) % | Cough (200 mg twice daily (n = 66)): (26) % | Diarrhea (200 mg twice daily (n = 66)): (32) % | Dyspnea (200 mg twice daily (n = 66)): (18) % | Fatigue (200 mg twice daily (n = 66)): (30) % | Headache (200 mg twice daily (n = 66)): (27) % | Muscle spasms (200 mg twice daily (n = 66)): (20) % | Nausea (200 mg twice daily (n = 66)): (27) % | Peripheral edema (200 mg twice daily (n = 66)): (20) % | Vomiting (200 mg twice daily (n = 66)): (15) % | Cough (Total (N = 132)): (28) % | Diarrhea (Total (N = 132)): (33) % | Dyspnea (Total (N = 132)): (25) % | Fatigue (Total (N = 132)): (38) % | Headache (Total (N = 132)): (24) % | Muscle spasms (Total (N = 132)): (20) % | Nausea (Total (N = 132)): (31) % | Peripheral edema (Total (N = 132)): (23) % | Vomiting (Total (N = 132)): (21) % | Hyperglycemia (200 mg daily (n = 66)): (5) % | Hypertension (200 mg daily (n = 66)): (6) % | Pneumonia (200 mg daily (n = 66)): (9) % | Hyperglycemia (200 mg twice daily (n = 66)): (5) % | Hypertension (200 mg twice daily (n = 66)): (6) % | Pneumonia (200 mg twice daily (n = 66)): (6) % | Hyperglycemia (Total (N = 132)): (5) % | Hypertension (Total (N = 132)): (6) % | Pneumonia (Total (N = 132)): (8) % | ALT increased (200 mg daily (n = 66)): (6) % | AST increased (200 mg daily (n = 66)): (8) % | Bilirubin conjugated increased (200 mg daily (n = 66)): (2) % | Blood alkaline phosphatase increased (200 mg daily (n = 66)): (6) % | GGT increased (200 mg daily (n = 66)): (9) % | Hypoalbuminemia (200 mg daily (n = 66)): (3) % | LFT increased (200 mg daily (n = 66)): (2) % | Transaminases increased (200 mg daily (n = 66)): (2) % | ALT increased (200 mg twice daily (n = 66)): (11) % | AST increased (200 mg twice daily (n = 66)): (12) % | Bilirubin conjugated increased (200 mg twice daily (n = 66)): 0% | Blood alkaline phosphatase increased (200 mg twice daily (n = 66)): (9) % | GGT increased (200 mg twice daily (n = 66)): (15) % | Hypoalbuminemia (200 mg twice daily (n = 66)): (3) % | LFT increased (200 mg twice daily (n = 66)): 0% | Transaminases increased (200 mg twice daily (n = 66)): (2) % | ALT increased (Total (N = 132)): (8) % | AST increased (Total (N = 132)): (10) % | Bilirubin conjugated increased (Total (N = 132)): (1) % | Blood alkaline phosphatase increased (Total (N = 132)): (8) % | GGT increased (Total (N = 132)): (12) % | Hypoalbuminemia (Total (N = 132)): (3) % | LFT increased (Total (N = 132)): (1) % | Transaminases increased (Total (N = 132)): (2) % | Clinically significant improvement from baseline (LSS), Nonresponder (Total): (31) % | Clinically significant improvement from baseline (LSS), Responder (Total): (70) % | Any AE (Total (N = 132)): (99) % | Drug-related AEs (Total (N = 132)): (67) % | Drug-related SAEs (Total (N = 132)): (5) % | Grade ≥3 AEs (Total (N = 132)): (54) % | Liver-related AEs (Total (N = 132)): (24) % | SAEs (Total (N = 132)): (38) % | CR, Esophagus [3]: (45) % | CR, Eyes [3]: (14) % | CR, Joints and fascia [3]: (20) % | CR, Liver [3]: (31) % | CR, Lower GI [3]: (62) % | CR, Lungs [3]: (13) % | CR, Mouth [3]: (44) % | CR, Skin [3]: (16) % | CR, Upper GI [3]: (48) % | ORR, Esophagus [3]: (45) % | ORR, Eyes [3]: (42) % | ORR, Joints and fascia [3]: (71) % | ORR, Liver [3]: (39) % | ORR, Lower GI [3]: (69) % | ORR, Lungs [3]: (26) % | ORR, Mouth [3]: (56) % | ORR, Skin [3]: (37) % | ORR, Upper GI [3]: (52) % | PR, Esophagus [3]: 0% | PR, Eyes [3]: (28) % | PR, Joints and fascia [3]: (51) % | PR, Liver [3]: (8) % | PR, Lower GI [3]: (8) % | PR, Lungs [3]: (13) % | PR, Mouth [3]: (11) % | PR, Skin [3]: (21) % | PR, Upper GI [3]: (4) % | Deaths (Total (N = 132), six during LTFU): (11) % | CR, within 6 mo of treatment (Total, N=132, mITT): (2) % | CR, within 12 mo of treatment (Total, N=132, mITT): (5) % | FFS at 6 mo (Total, N=132, mITT): 75% | FFS at 12 mo (Total, N=132, mITT): 56% | Mean change in CS dose from baseline, Overall (Total, N=132, mITT): −45% | Median CS reduction from baseline to greatest reduction (Total, N=132, mITT): 50% | ORR (best, any time) (Total, N=132, mITT): (76) % | ORR for responses occurring within 6 mo of treatment (Total, N=132, mITT): (72) % | ORR for responses occurring within 12 mo of treatment (Total, N=132, mITT): (75) % | PR, within 6 mo of treatment (Total, N=132, mITT): (70) % | PR, within 12 mo of treatment (Total, N=132, mITT): (71) % | Proportion with CS reduction (Total, N=132, mITT): 65% | CS discontinuation [4]: 21) % | Proportion with CS reduction [4]: (65) % | Clinically significant improvement from baseline (LSS), Overall (200 mg daily, n=66, mITT): 59% | Clinically significant improvement from baseline (LSS), Overall (200 mg daily, n=66, mITT, listed as Belumosudil): (59) % | Clinically significant improvement from baseline (LSS), Overall (200 mg twice daily, n=66, mITT): 62% | Clinically significant improvement from baseline (LSS), Overall (200 mg twice daily, n=66, mITT, listed as Belumosudil): (62) % | Clinically significant improvement from baseline (LSS), Overall (Total, N=132, mITT): (61) % | Grade ≥3 anemia (in vivo): 3% | Grade ≥3 cytopenias (in vivo): < 4% | Grade ≥3 neutropenia (in vivo): 2% | Grade ≥3 thrombocytopenia (in vivo): 2% | SAE: pneumonia (in vivo): 7% | discontinued because of overall AEs (in vivo): 21% | discontinued because of possible drug-related AEs (in vivo): 12% | discontinued because of progression of cGVHD (in vivo): 16% | discontinued because of progression of underlying malignant disease (in vivo): 4% | grade 3 or 4 AE: hyperglycemia (in vivo): 5% | grade 3 or 4 AE: hypertension (in vivo): 6% | grade 3 or 4 AE: pneumonia (in vivo): 8% | liver-related AE: increased GGT (in vivo): 12% | subjects who discontinued calcineurin inhibitor (CNI) therapy (in vivo): 22% | subjects who received an RDI >95% (in vivo): Eighty-one | subjects with >1 SAE (in vivo): Thirty eight | subjects with increased liver function tests (LFTs) (in vivo): Twenty-four | organ-specific best ORR, esophagus (mITT, pooled): 45% | organ-specific best ORR, eyes (mITT, pooled): 42% | organ-specific best ORR, joints/fascia (mITT, pooled): 71% | organ-specific best ORR, liver (mITT, pooled): 39% | organ-specific best ORR, lower GI tract (mITT, pooled): 69% | organ-specific best ORR, lungs (mITT, pooled): 26% | organ-specific best ORR, mouth (mITT, pooled): 55% | organ-specific best ORR, skin (mITT, pooled): 37% | organ-specific best ORR, upper gastrointestinal (GI) tract (mITT, pooled): 52% | nonrelapse mortality (NRM) rate (overall): 7% | share of responses seen after 6 to 12 months of treatment (pooled): 9% | ORRs observed in all subgroups (pooled across arms, mITT): 61-85%
